How the values were obtained:
[1] = tested on: Beet Armyworm (BAW) (Spodoptera exigua); test: Bioassay on beet armyworm (BAW), 128-well diet tray assay; type: in vivo; conditions: Spodoptera exigua; Beet armyworm, 50 μg/cm^2; read-out: % Mortality BAW 50 μg/cm^2
Experimental: (§1) Bioassays on Beet Armyworm (“BAW”) and Corn Earworm (“CEW”)
(§2) Certain molecules disclosed in this document were tested against BAW and CEW using procedures described in the following examples. In the reporting of the results, the “BAW & CEW Rating Table” was used (See Table Section).
Bioassays on BAW (Spodoptera exigua)
Bioassays on BAW were conducted using a 128-well diet tray assay. One to five second instar BAW larvae were placed in each well (3 mL) of the diet tray that had been previously filled with 1 mL of artificial diet to which 50 μg/cm^2 of the test compound (dissolved in 50 μL of 90:10 acetone-water mixture) had been applied (to each of eight wells) and then allowed to dry. Trays were covered with a clear self-adhesive cover and held at 25° C., 14:10 light-dark for five to seven days. Percent mortality was recorded for the larvae in each well; activity in the eight wells was then averaged. The results are indicated in the table entitled “Table 5: Biological Results” (See Table Section).

[2] = tested on: Corn Earworm (CEW) (Helicoverpa zea); test: Bioassay on corn earworm (CEW), 128-well diet tray assay; type: in vivo; conditions: Helicoverpa zea; Corn earworm, 50 μg/cm^2; read-out: % Mortality CEW 50 μg/cm^2
Experimental: as §1, §2
Bioassays on CEW (Helicoverpa zea)
Bioassays on CEW were conducted using a 128-well diet tray assay. One to five second instar CEW larvae were placed in each well (3 mL) of the diet tray that had been previously filled with 1 mL of artificial diet to which 50 μg/cm^2 of the test compound (dissolved in 50 μL of 90:10 acetone-water mixture) had been applied (to each of eight wells) and then allowed to dry. Trays were covered with a clear self-adhesive cover and held at 25° C., 14:10 light-dark for five to seven days. Percent mortality was recorded for the larvae in each well; activity in the eight wells was then averaged. The results are indicated in the table entitled “Table 5: Biological Results” (See Table Section).

SMILES	pest or weed control at 50 µg/cm2, 50 µg/cm2 [1] [%]	pest or weed control at 50 µg/cm2, 50 µg/cm2 [2] [%]
CC(C)c1ccc(F)cc1N1CS/C1=N\N=C\c1ccc(-c2ncn(-c3ccc(C(F)(F)F)cc3)n2)cc1 [Compound 255C]	50 to 100	50 to 100
COc1ccc(N2CCS/C2=N\N=C\c2ccc(-c3ncn(-c4ccc(OC(F)(F)F)cc4)n3)cc2)c(C)c1 [Compound 137C]	50 to 100	50 to 100
CCN(CC)c1ccc(-c2cs/c(=N\N=C\c3ccc(-c4ncn(-c5ccc(OC(F)(F)F)cc5)n4)cc3)n2-c2c(C)cccc2C)cc1 [Compound 74C]	50 to 100	50 to 100
CC1CS/C(=N\N=C\c2ccc(-c3ncn(-c4ccc(OC(F)(F)F)cc4)n3)cc2)N1c1ccccc1C(C)(C)C (centres unmarked) [Compound 165C]	50 to 100	50 to 100
CCC1CS/C(=N\N=C\c2ccc(-c3ncn(-c4ccc(OC(F)(F)F)cc4)n3)cc2)N1c1ccccc1C (centres unmarked) [Compound 166C]	50 to 100	50 to 100
COc1cc(C)c(/N=C(/N/N=C/c2ccc(-c3ncn(-c4ccc(OC(F)(F)F)cc4)n3)cc2)SCOC(=O)C(C)OCC(F)(F)F)c(C)c1 (centres unmarked) [Compound 38C]	50 to 100	50 to 100
Cc1cs/c(=N\N=C\c2ccc(-c3ncn(-c4ccc(OC(F)(F)F)cc4)n3)cc2)n1-c1c(Cl)cccc1C(F)(F)F [Compound 169C]	50 to 100	50 to 100
CC1S/C(=N\N=C\c2ccc(-c3ncn(-c4ccc(OC(F)(F)F)cc4)n3)cc2)N(c2c(Cl)cccc2Cl)C1=O (centres unmarked) [Compound 129C]	50 to 100	50 to 100
C/C(=N\N=C1/SCC(=O)N1c1ccccc1C(C)C)c1ccc(-c2ncn(-c3ccc(OC(F)(F)F)cc3)n2)cc1 [Compound 122C]	50 to 100	50 to 100
FC(F)Oc1ccccc1N1CCS/C1=N\N=C\c1ccc(-c2ncn(-c3ccc(OC(F)(F)F)cc3)n2)cc1 [Compound 152C]	50 to 100	50 to 100
COCOCC(C)C(=O)OCS/C(=N\c1c(C)cccc1C)N/N=C/c1ccc(-c2ncn(-c3ccc(OC(F)(F)F)cc3)n2)cc1 (centres unmarked) [Compound 41C]	50 to 100	50 to 100
CCc1ccccc1N1CS/C1=N\N=C\c1ccc(-c2ncn(-c3ccc(OC(F)(F)F)cc3)n2)cc1 [Compound 254C]	50 to 100	50 to 100
Cc1cccc(C)c1/N=C(/N/N=C/c1ccc(-c2ncn(-c3ccc(OC(F)(F)F)cc3)n2)cc1)SCOC(=O)CNC(=O)OCc1ccccc1 [Compound 23C]	50 to 100	50 to 100
CC(C)c1ccccc1N1CCS/C1=N\N=C\c1ccc(-c2ncn(-c3ccc(C(F)(F)F)cc3)n2)cc1 [Compound 134C]	50 to 100	50 to 100
CC1CCS/C(=N\N=C\c2ccc(-c3ncn(-c4ccc(OC(F)(F)F)cc4)n3)cc2)N1c1ccccc1OC(F)(F)F (centres unmarked) [Compound 216C]	50 to 100	50 to 100
COC(=O)C1CC(c2ccc(/C=N/N=C3\SCC(=O)N3c3c(C)cccc3C)cc2)=NN1c1ccc(OC(F)(F)F)cc1 (centres unmarked) [Compound 110C]	50 to 100	50 to 100
Cc1cccc(C)c1/N=C(/N/N=C/c1ccc(-c2ncn(-c3ccc(OC(F)(F)F)cc3)n2)cc1)SCOC(=O)C(C)C [Compound 25C]	50 to 100	50 to 100
CC(C)c1cc(F)ccc1N1CS/C1=N\N=C\c1ccc(-c2ncn(-c3ccc(C(F)(F)F)cc3)n2)cc1 [Compound 261C]	50 to 100	50 to 100
Cc1cccc(Cl)c1N1C(=O)CCS/C1=N\N=C\c1ccc(-c2ncn(-c3ccc(OC(F)(F)F)cc3)n2)cc1 [Compound 227C]	50 to 100	50 to 100
